# Reference: patent US6004972A, “Therapeutic process for the treatment of the pathologies of type II diabetes” (The Board of Supervisiors of Louisiana State University and …, priority 1998, dated 1999)
# Several values for one entry are separate records, joined by “and”; a condition that tells them apart may be missing. Identical values can stand only once.
# B1: Prolactin: a hormone secreted by the pituitary (protein, UniProt P01236 29-227, looked up)
# Prolactin: LPICPGGAARCQVTLRDLFDRAVVLSHYIHNLSSEMFSEFDKRYTHGRGFITKAINSCHTSSLATPEDKEQAQQMNQKDFLSLIVSILRSWNEPLYHLVTEVRGMQEAPEAILSKAVEIEEQTKRLLEGMELIVSQVHPETKENEIYPVWSGLPSLQMADEESRLSAYYNLLHCLRRDSHKIDNYLKLLKCRIIHNNNC
# Experiments:
# adult female pigs = assay: Effects of bromocriptine implants on fat stores and plasma triglyceride, glucose and insulin in pigs; assay type: in vivo, pig (swine)
# Description: (§1) Adult female pigs, six in number, were given bromocryptine implants (10 mg/pig/day) lasting over a period of time while the pigs were subjected to daily periods of daylight and darkness (12:12). […] A control group of six pigs were similarly treated to periods of daylight and darkness except that no bromocryptine was administered to the pigs of the control group. The period of darkness was from 1800 to 0600, and the period of daylight from 0600 to 1800. Daily tests were made of the blood of the pigs at four hour intervals over a 14 day period to determine the plasma cortisol level (μg/dl) and plasma prolactin level […] of both groups. The average for each series of tests made on each group are given as follows:
# Notes: Backfat thickness was used as an index in determining fat stores.
# Plasma was sampled at 1600, 2000 and 2400 after two weeks of treatment. Each pig of the treatment group and control group was sampled.
# [1] = test system: circadian rhythms of plasma cortisol and prolactin in adult female pigs; assay: Circadian plasma cortisol and prolactin levels in pigs given bromocriptine implants; assay type: in vivo, pig (swine); conditions: for Plasma Cortisol Level: implant 10 mg/pig/day
# Description: as §1, with “follows: […]” for “follows:”
# symptoms of diabetes = assay: Oral bromocriptine in a diabetic (Example 2); assay type: in vivo, human; conditions: 1.25-2.50 mg/day orally just after awakening
# Description: At the beginning of the treatment, blood glucose concentration was shown by routine testing to be near 250 mg/dl. […] Fasting levels below 120 mg/dl are considered normal.
# Type II diabetes [2] = assay: Oral bromocriptine in a person treated with diabenase (Example 3); assay type: in vivo, human
# Description: A person was being treated with a hypoglycemic agent (diabenase) which had reduced the blood glucose of the patient from 250 mg/dl to about 180 mg/dl during one year of treatment. […] Removal of the hypoglycemic agent allowed glucose levels to rise and remain near 100 mg/dl (a normal level) in the succeeding two months.
# Type II diabetes [3] = assay: Oral bromocriptine in a diabetic (Example 4); assay type: in vivo, human; conditions: parlodel 2.5 mg/day orally, 2.5 months
# Description: A person weighing nearly 300 pounds was known to be a diabetic but had resisted all previous admonitions for treatment. […] Body weight has dropped 22 pounds and plasma glucose levels decreased to 160 mg/dl.
# [4] = test system: noninsulin dependent (Type II) diabetes; assay: Timed oral bromocriptine in fifteen persons with noninsulin dependent (Type II) diabetes (Example 5); assay type: in vivo, human; conditions: for Body Fat Loss / Plasma Glucose (% initial) / Skinfold Measurements (% initial): p < 0.05
# Description: The participants were carefully instructed not to alter their daily activity or eating habits during the course of treatment.
# Skinfold thickness was measured on the left side of the body by a trained anthropometrist in four regions: biceps, triceps, subscapular, and suprailiac, following the recommendations of the International Biological Program. Because of its frequent use, percent body fat was estimated from the common logarithm of the sum of the four skinfolds, using the equations of Durnin and Rahman and of Siri. […] Skinfold measurements were taken initially and at weekly intervals by the same individual. Blood pressure was also determined at these times. Morning fasting plasma glucose in the diabetic group was determined initially and after 4-8 weeks.
# body fat stores = conditions: injections at different times of day; cited from earlier work
# [5] = parlodel 1.25-2.5 mg/day orally
# [6] = subjects on hypoglycemic drugs (8), 4-8 weeks
# [7] = subjects receiving insulin (7), 4-8 weeks
molecule,measurement,setting,value
"CC(C)C[C@H]1C(=O)N2CCC[C@H]2[C@]2(O)O[C@](NC(=O)[C@@H]3C=C4c5cccc6[nH]c(Br)c(c56)C[C@H]4N(C)C3)(C(C)C)C(=O)N12 [bromocriptine, 2-bromo-alpha-ergocryptine]",Backfat,"adult female pigs; 10 mg/day/pig implant, 28 days after treatment",86 % control
same,Triglyceride (plasma),"adult female pigs; 10 mg/day/pig implant, two weeks, sampled 1600, 2000 and 2400, control 52 ± 8",27 ± 3 mg/dL
same,Glucose (plasma),"adult female pigs; 10 mg/day/pig implant, two weeks, sampled 1600, 2000 and 2400, control 99 ± 5",86 ± 3 mg/dL
same,reduction in plasma insulin concentration,adult female pigs; implant,not statistically significant
same,reduction of body fat stores,"adult female pigs; implant, 28 day period of treatment",14%
same,reduction of plasma glucose levels,"adult female pigs; implant, early period of darkness (2000-2400)",13%
same,reduction of plasma triglyceride concentration,"adult female pigs; implant, near sunset",48%
same,phase relationships of the circadian rhythms of plasma corticosteroid and prolactin concentrations,[1]; implant,altered the phase relationships
same,Plasma Cortisol Level,"[1]; LD 12:12, time 0400, control 5.5",3.2 µg/dL
same,Plasma Cortisol Level,"[1]; LD 12:12, time 0800, control 4.8",1.9 µg/dL
same,Plasma Cortisol Level,"[1]; LD 12:12, time 1200, control 3.4",1.5 µg/dL
same,Plasma Cortisol Level,"[1]; LD 12:12, time 1600, control 1.6",3.2 µg/dL
same,Plasma Cortisol Level,"[1]; LD 12:12, time 2000, control 1.9",2.8 µg/dL
same,Plasma Cortisol Level,"[1]; LD 12:12, time 2400, control 2.7",3.5 µg/dL
same,reduction of body weight,symptoms of diabetes,about 12%
same,reduction of indices of body fat,symptoms of diabetes,about 12%
same,blood glucose concentration,"symptoms of diabetes; successive levels in following weeks, initial near 250 mg/dl",180 mg/dL and 155 mg/dL and 135 mg/dL and 97 mg/dL and 101 mg/dL
same,blood glucose level,"Type II diabetes [2]; after removal of hypoglycemic agent, succeeding two months",~100 mg/dL
same,reduction of body fat,Type II diabetes [2]; [5],about 10%
same,reduction of body weight,Type II diabetes [2]; [5],about 10%
same,blood glucose level,"Type II diabetes [2]; parlodel 1.25-2.5 mg/day orally, about an hour after awakening, with diabenase, 2 weeks, from about 180 mg/dl",80 mg/dL
same,plasma glucose level,Type II diabetes [3]; initial near 350 mg/dl,160 mg/dL
same,drop in body weight,"Type II diabetes [3]; two to three hours after awakening, initial nearly 300 pounds",22 pounds
same,transient anorexic effects,"[4]; 1.25 mg for 2-3 days then 2.5 mg daily, oral",did not occur
same,"mild nausea, participants","[4]; 1.25 mg for 2-3 days then 2.5 mg daily, oral, transient, first few days",< 10%
same,reductions in body fat,[4]; after 6 weeks without food restriction,4.4 % of the body weight
same,blood glucose concentrations and skinfold measurements,"[4]; all subjects, 4-8 weeks",reduced in every diabetic subject
same,doses of hypoglycemic drugs and insulin,[4]; during bromocriptine treatment,reduced in three other subjects
same,oral hypoglycemic medication discontinued,[4]; during bromocriptine treatment,completely discontinued during bromocriptine treatment in three individuals
same,"fat loss, average",[4]; present study,1.4 pounds per week
same,"Body Fat, final","[4]; subjects on hypoglycemic drugs (8), 4-8 weeks, initial 36.5 ± 2.3, p < 0.05",32.9 ± 2.0 % Body Weight
same,"Plasma Glucose, final (fasting)","[4]; subjects on hypoglycemic drugs (8), 4-8 weeks, initial 231 ± 19, p < 0.05",166 ± 19 mg/dL
same,"Total Body Weight, final","[4]; subjects on hypoglycemic drugs (8), 4-8 weeks, initial 255 ± 21",253 ± 20 pounds
same,Loss of Body Weight,"[4]; subjects on hypoglycemic drugs (8), 4-8 weeks, not statistically significant",-2.4 ± 2.0 pounds
same,Body Fat Loss,[4]; [6],-10.0 ± 2.2 pounds
same,Plasma Glucose (% initial),[4]; [6],72 ± 6 % initial
same,Skinfold Measurements (% initial),[4]; [6],79 % initial
same,Loss of Body Weight,[4]; [7],-0.4 ± 2.0 pounds
same,"Body Fat, final","[4]; subjects receiving insulin (7), 4-8 weeks, initial 33.4 ± 2.2, p < 0.05",31.7 ± 1.7 % Body Weight
same,Body Fat Loss,[4]; [7],-3.1 ± 0.9 pounds
same,Plasma Glucose (% initial),[4]; [7],65 ± 8 % initial
same,Skinfold Measurements (% initial),[4]; [7],84 % initial
same,mean loss of body fat,"[4]; subjects taking hypoglycemic drugs, 4-8 weeks",10 pounds
same,mean reduction in skinfold measurements,"[4]; subjects taking hypoglycemic drugs, four regions, 4-8 weeks",21%
same,reduction of body weight,"[4]; subjects taking hypoglycemic drugs, not statistically significant",2.4 pounds per subject
same,decline in total body fat,"[4]; subjects taking hypoglycemic drugs, within 4 to 8 weeks",10.7%
same,reduction in % body fat,[4]; subjects taking insulin,5.1
same,reduction in body fat,[4]; subjects taking insulin,3.1 pounds
same,reduction in skinfold,[4]; subjects taking insulin,16%
same,reduction of body weight,[4]; subjects taking insulin,not at all reduced
same,blood glucose levels after termination of bromocriptine,"[4]; three individuals off oral hypoglycemic medication, at least two months after bromocriptine terminated",< 120 mg/dL
CCCNC(=O)NS(=O)(=O)c1ccc(Cl)cc1 [diabenase],blood glucose level,"Type II diabetes [2]; diabenase alone, one year of treatment, from 250 mg/dl",about 180 mg/dl
B1,stimulation of fattening,body fat stores,stimulate fattening only when injected at certain times of the day
